Reference: patent publication US8304448B2, “Method for the treatment of metabolic disorder containing benzazole derivatives as an active ingredient” (Korea Research Institute of Bioscience and Biotechnology, priority 2006, dated 2012)

What was measured:
DGAT = test: Assay for inhibitory effect on DGAT in cell (intracellular triglyceride production from [14C]acetate in HepG2 cells); format: cell-based, human
Method: The effect of the benzazole derivatives of Chemical Formula 1 in accordance with the present invention on DGAT was examined with HepG2 cells, hepatic cells derived from the human liver, as follows.
HepG2 cells, purchased from ATCC, were cultured in Eagle's minimum essential medium (MEM), 2 mM L-glutamine, with Earle's balanced salt solution (BSS) adjusted to contain, 1.5 g/L sodium bicarbonate, 0.1 mM non-essential amino acids and 1 mM sodium pyruvate, supplemented with 10% fetal bovine serum (FBS) and 1% antibiotics (100 U/ml penicillin and 100 µg/ml streptomycin) at 37° C. in a 5% CO2 incubator.
Intracellular DGAT activity was represented by the amount of triglycerides produced in the cultured HepG2 cells while the compounds (4, 8, 10, 22, 24, 25, 26, 39 and 31) of Chemical Formula 1 were assayed for inhibitory activity against DGAT by measuring the change in intracellular triglyceride production after the addition thereof.
Cells were plated at a density of 1×10^6 cell/ml per well into 24-well plates and incubated for 24 hours. Then, the medium was exchanged with FBS-free MEM and pre-treated with samples for 1 hour. Thereafter, 0.2 mCi of [^14C]acetate (Amersham) was added as a substrate to the cells, followed by incubation for 1 hour. The production of triglyceride was catalyzed by DGAT so that DGAT activity was determined by the amount of the triglyceride product, which could be measured by radioactivity. For use, the samples were dissolved in dimethyl sulfoxide (DMSO). In a control, triglycerides were synthesized using DMSO without any sample, with the production yield thereof given as 100.
The amount of the glyceride products synthesized was determined as follows. After completion of synthesis, the cells were suspended in PBS (phosphate-buffer-saline) to remove the substrate [^14C]acetate, whether unabsorbed into the cells or remaining unreacted, and total lipids, including triglycerides, were extracted twice for 30 min with 0.5 ml of an extraction solvent mixture (hexane:isopropanol=3:2, v:v). 1 ml of the extract was concentrated with nitrogen gas.
The total lipid residue thus formed was dissolved in an organic solvent mixture (chloroform:methanol=2:1) and loaded dropwise onto a thin layer chromatography plate (TLC; silica gel 60F254, 0.5 mm, Merck) using a mixture of 80:20:1 hexane:diethylether:acetic acid (v:v:v) as a developing solvent. After the separation of triglycerides (Rf value: 0.4) on TLC, the plate was brought into contact with an autoradiographic film for three hours, followed by image analysis (BAS-1500, Fuji Photo Film Co. Ltd.) to determine the [^14C] radioactivity of the triglycerides. The cells left after the extraction were suspended in 0.3 ml of a 0.1 N sodium hydroxide solution to measure the cellular protein concentration thereof.
The empirical values were obtained by dividing triglyceride radioactivity by protein level, with correction for experimental errors between test groups.

ICR mice = test: Acute toxicity, oral administration for two weeks, mice; format: in vivo; conditions: oral 100 and 250 mg/kg for two weeks
Method: An assay of the benzazole derivatives of Chemical Formula 1 in accordance with the present invention was performed for acute toxicity on mice (20±5 g, Central Lab. Animal Inc.) and rats (235±10 g, Central Lab. Animal Inc.).
For this, ICR mice and Sprague-Dawley rats were assigned to 4 groups of 10 and orally administered with Compound 22 in doses of 100 and 250 mg/kg for two weeks.

O=C(NCc1ccco1)c1ccc2oc(COc3ccc(C45CC6CC(CC(C6)C4)C5)cc3)nc2c1 [Cpd. 22, 2-(4-adamantan-1-yl-phenoxymethyl)-benzoxazole-5-carboxylic acid (furan-2-ylmethyl)-amide]
inhibition of the biosynthesis of triglycerides (DGAT; 10 μM): 32.2% | Production Yield of Triglyceride (%) (DGAT; final level 10 μM, DMSO control given as 100): 67.8 ± 7.2% | apparent symptoms (ICR mice): no apparent symptoms different from the control
